Measurements: PubChem BioAssay (NCI)
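Tested at 5 concentrations; 48 h exposure; 96-well plates; endpoints linearly interpolated, else capped at highest concentration. Here, GI50 denotes the concentration required for 50% inhibition of growth. TGI: total growth inhibition.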

Columns and labels:
Assay in all cases: NCI-60 cell line screen, 48 h
T-47D breast = system: T-47D breast
SF-268 CNS = system: SF-268 CNS
NCI-H522 lung = system: NCI-H522 lung
MALME-3M melanoma = system: MALME-3M melanoma
NCI-H23 lung = system: NCI-H23 lung
SN12C renal = system: SN12C renal
HCT-116 colon = system: HCT-116 colon
HOP-62 NSCLC = system: HOP-62 NSCLC
TK-10 renal = system: TK-10 renal
UO-31 renal = system: UO-31 renal
HCC-2998 colon = system: HCC-2998 colon
ACHN renal = system: ACHN renal
SK-MEL-28 melanoma = system: SK-MEL-28 melanoma
SK-MEL-5 melanoma = system: SK-MEL-5 melanoma
OVCAR-4 ovarian = system: OVCAR-4 ovarian
A498 renal = system: A498 renal
M14 melanoma = system: M14 melanoma
UACC-257 melanoma = system: UACC-257 melanoma
SF-539 CNS = system: SF-539 CNS
SNB-19 CNS = system: SNB-19 CNS
CCRF-CEM leukemia = system: CCRF-CEM leukemia
MDA-MB-435 = system: MDA-MB-435
SK-MEL-2 melanoma = system: SK-MEL-2 melanoma
MOLT-4 leukemia = system: MOLT-4 leukemia
IGROV1 ovarian = system: IGROV1 ovarian
RPMI-8226 leukemia = system: RPMI-8226 leukemia
NCI-H460 lung = system: NCI-H460 lung
HS 578T breast = system: HS 578T breast
DU-145 prostate = system: DU-145 prostate
UACC-62 melanoma = system: UACC-62 melanoma
BT-549 breast = system: BT-549 breast
SNB-75 CNS = system: SNB-75 CNS
SK-OV-3 ovarian = system: SK-OV-3 ovarian
MDA-MB-468 breast = system: MDA-MB-468 breast
A549 NSCLC = system: A549 NSCLC
OVCAR-5 ovarian = system: OVCAR-5 ovarian
LOX IMVI melanoma = system: LOX IMVI melanoma
HCT-15 colon = system: HCT-15 colon
NCI-H226 lung = system: NCI-H226 lung
HOP-92 NSCLC = system: HOP-92 NSCLC
NCI/ADR-RES ovarian = system: NCI/ADR-RES ovarian
MDA-MB-231 breast = system: MDA-MB-231 breast
EKVX NSCLC = system: EKVX NSCLC
SF-295 CNS = system: SF-295 CNS
KM12 colon = system: KM12 colon
OVCAR-3 ovarian = system: OVCAR-3 ovarian
RXF 393 renal = system: RXF 393 renal
CAKI-1 renal = system: CAKI-1 renal
U251 CNS = system: U251 CNS
OVCAR-8 ovarian = system: OVCAR-8 ovarian
PC-3 prostate = system: PC-3 prostate
786-0 renal = system: 786-0 renal

## COc1ccc2[nH]cc(-c3cc(N)n4nc(-c5c[nH]c6ccccc56)cc4n3)c2c1
T-47D breast
  GI50: 3.05 µM
  TGI: 26.3 µM
SF-268 CNS
  GI50: 9.09 µM
  TGI: 37.3 µM
NCI-H522 lung
  GI50: 1.64 µM
  TGI: 3.51 µM
MALME-3M melanoma
  GI50: 1.7 µM
  TGI: 3.07 µM
NCI-H23 lung
  GI50: 3.15 µM
  TGI: 10.2 µM
SN12C renal
  GI50: 10.1 µM
  TGI: 22.8 µM
HCT-116 colon
  GI50: 1.75 µM
  TGI: 3.12 µM
HOP-62 NSCLC
  GI50: 3.14 µM
  TGI: 7.88 µM
TK-10 renal
  GI50: 3.53 µM
  TGI: 12.1 µM
UO-31 renal
  GI50: 1.86 µM
  TGI: 4.65 µM
HCC-2998 colon
  GI50: 1.77 µM
  TGI: 3.38 µM
ACHN renal
  GI50: 2.62 µM
  TGI: 6.99 µM
SK-MEL-28 melanoma
  GI50: 1.72 µM
  TGI: 3.1 µM
SK-MEL-5 melanoma
  GI50: 1.7 µM
  TGI: 3.07 µM
OVCAR-4 ovarian
  GI50: 5.06 µM
  TGI: 17.8 µM
A498 renal
  GI50: 11.4 µM
  TGI: 24.4 µM
M14 melanoma
  GI50: 1.79 µM
  TGI: 3.32 µM
UACC-257 melanoma
  GI50: 1.73 µM
  TGI: 3.21 µM
SF-539 CNS
  GI50: 1.68 µM
  TGI: 3.05 µM
SNB-19 CNS
  GI50: 4.25 µM
  TGI: 14.8 µM
CCRF-CEM leukemia
  GI50: 2.6 µM
  TGI: 6.46 µM
MDA-MB-435
  GI50: 2.04 µM
  TGI: 4.11 µM
SK-MEL-2 melanoma
  GI50: 1.83 µM
  TGI: 3.8 µM
MOLT-4 leukemia
  GI50: 2.25 µM
  TGI: 6.05 µM
IGROV1 ovarian
  GI50: 4.52 µM
  TGI: 17 µM
RPMI-8226 leukemia
  GI50: 2.37 µM
  TGI: 5.51 µM
NCI-H460 lung
  GI50: 2.74 µM
  TGI: 7.59 µM
HS 578T breast
  GI50: 6.69 µM
  TGI: > 100 µM
DU-145 prostate
  GI50: 5.19 µM
  TGI: 19.3 µM
UACC-62 melanoma
  GI50: 1.73 µM
  TGI: 3.16 µM
BT-549 breast
  GI50: 13.3 µM
  TGI: 26.1 µM
SNB-75 CNS
  GI50: 11.2 µM
  TGI: 29.2 µM
SK-OV-3 ovarian
  GI50: 15 µM
  TGI: 33.1 µM
MDA-MB-468 breast
  GI50: 1.66 µM
  TGI: 3.12 µM
A549 NSCLC
  GI50: 3.14 µM
  TGI: 13.9 µM
OVCAR-5 ovarian
  GI50: 3.86 µM
  TGI: 13.4 µM
LOX IMVI melanoma
  GI50: 1.64 µM
  TGI: 3.01 µM
HCT-15 colon
  GI50: 1.66 µM
  TGI: 3.33 µM
NCI-H226 lung
  GI50: 11.5 µM
  TGI: 28 µM
HOP-92 NSCLC
  GI50: 3.04 µM
  TGI: 11.9 µM
NCI/ADR-RES ovarian
  GI50: 5.84 µM
  TGI: 24 µM
MDA-MB-231 breast
  GI50: 1.91 µM
  TGI: 3.58 µM
EKVX NSCLC
  GI50: 3.93 µM
  TGI: 15.9 µM
SF-295 CNS
  GI50: 1.83 µM
  TGI: 3.55 µM
KM12 colon
  GI50: 2.21 µM
  TGI: 5.01 µM
OVCAR-3 ovarian
  GI50: 3.27 µM
  TGI: 16.6 µM
RXF 393 renal
  GI50: 1.38 µM
  TGI: 3.48 µM
CAKI-1 renal
  GI50: 2.32 µM
  TGI: 6.44 µM
U251 CNS
  GI50: 2.08 µM
  TGI: 4.67 µM
OVCAR-8 ovarian
  GI50: 4.12 µM
  TGI: 33.3 µM
PC-3 prostate
  GI50: 3.33 µM
  TGI: 14.8 µM
786-0 renal
  GI50: 1.57 µM
  TGI: 3 µM
